# Tests used:
# [1] = target: T1, 3-hydroxy-3-methylglutaryl-coenzyme A reductase (Mus musculus, UniProt Q01237); test: In vitro inhibitory activity against isolated enzyme HMG-CoA reductase
# T1 sequence (Q01237 whole entry): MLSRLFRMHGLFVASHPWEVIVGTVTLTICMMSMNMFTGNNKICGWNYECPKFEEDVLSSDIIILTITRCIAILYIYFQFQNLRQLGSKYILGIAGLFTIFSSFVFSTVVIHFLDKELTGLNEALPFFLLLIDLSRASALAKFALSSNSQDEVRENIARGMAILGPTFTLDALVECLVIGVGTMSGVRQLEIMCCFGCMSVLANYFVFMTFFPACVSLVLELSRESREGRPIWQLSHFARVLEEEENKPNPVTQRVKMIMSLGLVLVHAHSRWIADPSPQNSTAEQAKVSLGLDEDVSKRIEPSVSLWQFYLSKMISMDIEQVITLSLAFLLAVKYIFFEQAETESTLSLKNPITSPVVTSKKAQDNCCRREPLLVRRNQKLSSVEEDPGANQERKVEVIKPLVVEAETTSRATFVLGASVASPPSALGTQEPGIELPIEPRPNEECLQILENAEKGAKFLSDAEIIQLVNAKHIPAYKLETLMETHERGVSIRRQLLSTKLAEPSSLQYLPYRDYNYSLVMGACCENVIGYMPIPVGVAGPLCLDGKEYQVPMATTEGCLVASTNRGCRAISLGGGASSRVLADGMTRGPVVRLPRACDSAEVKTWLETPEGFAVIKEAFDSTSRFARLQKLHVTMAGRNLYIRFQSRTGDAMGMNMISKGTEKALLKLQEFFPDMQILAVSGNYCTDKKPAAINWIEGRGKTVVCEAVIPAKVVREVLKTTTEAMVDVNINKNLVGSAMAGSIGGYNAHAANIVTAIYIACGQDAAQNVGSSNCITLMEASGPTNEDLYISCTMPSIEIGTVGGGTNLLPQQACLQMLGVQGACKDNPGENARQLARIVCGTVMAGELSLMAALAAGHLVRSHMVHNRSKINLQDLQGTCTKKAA
# [2] = target: T2, 3-hydroxy-3-methylglutaryl-coenzyme A reductase (Homo sapiens, UniProt P04035); test: Compound was evaluated for inhibitory activity against HMG-CoA reductase in HepG2 cells; type: cell-based
# T2 sequence (P04035 whole entry): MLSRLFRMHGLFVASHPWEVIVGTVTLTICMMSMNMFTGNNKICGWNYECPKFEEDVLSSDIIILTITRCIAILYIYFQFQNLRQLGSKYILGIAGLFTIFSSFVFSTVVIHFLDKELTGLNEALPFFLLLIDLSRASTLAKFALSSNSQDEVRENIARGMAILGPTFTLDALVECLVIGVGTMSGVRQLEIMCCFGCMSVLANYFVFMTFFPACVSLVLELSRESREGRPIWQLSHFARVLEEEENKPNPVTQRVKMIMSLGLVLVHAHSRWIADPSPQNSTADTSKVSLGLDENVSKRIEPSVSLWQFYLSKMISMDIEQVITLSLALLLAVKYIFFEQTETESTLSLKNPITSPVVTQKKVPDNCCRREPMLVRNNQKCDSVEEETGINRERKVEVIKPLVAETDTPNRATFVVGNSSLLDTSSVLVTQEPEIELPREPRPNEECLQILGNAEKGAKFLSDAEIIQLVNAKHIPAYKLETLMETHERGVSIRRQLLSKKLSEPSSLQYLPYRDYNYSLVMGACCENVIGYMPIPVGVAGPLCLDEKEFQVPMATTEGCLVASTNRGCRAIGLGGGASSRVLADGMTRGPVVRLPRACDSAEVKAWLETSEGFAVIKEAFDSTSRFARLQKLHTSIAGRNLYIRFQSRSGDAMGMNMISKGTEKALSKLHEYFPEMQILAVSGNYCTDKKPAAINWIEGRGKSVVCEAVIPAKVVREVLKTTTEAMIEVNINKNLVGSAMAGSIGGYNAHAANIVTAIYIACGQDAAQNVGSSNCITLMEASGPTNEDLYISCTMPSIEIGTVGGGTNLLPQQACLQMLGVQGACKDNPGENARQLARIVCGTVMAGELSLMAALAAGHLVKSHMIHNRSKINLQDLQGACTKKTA
# [3] = target: T3, 3-hydroxy-3-methylglutaryl-coenzyme A reductase (Rattus norvegicus, UniProt P51639); test: Compound was evaluated for inhibitory activity against HMG-CoA reductase from rat hepatocyte; type: cell-based
# T3 sequence (P51639 whole entry): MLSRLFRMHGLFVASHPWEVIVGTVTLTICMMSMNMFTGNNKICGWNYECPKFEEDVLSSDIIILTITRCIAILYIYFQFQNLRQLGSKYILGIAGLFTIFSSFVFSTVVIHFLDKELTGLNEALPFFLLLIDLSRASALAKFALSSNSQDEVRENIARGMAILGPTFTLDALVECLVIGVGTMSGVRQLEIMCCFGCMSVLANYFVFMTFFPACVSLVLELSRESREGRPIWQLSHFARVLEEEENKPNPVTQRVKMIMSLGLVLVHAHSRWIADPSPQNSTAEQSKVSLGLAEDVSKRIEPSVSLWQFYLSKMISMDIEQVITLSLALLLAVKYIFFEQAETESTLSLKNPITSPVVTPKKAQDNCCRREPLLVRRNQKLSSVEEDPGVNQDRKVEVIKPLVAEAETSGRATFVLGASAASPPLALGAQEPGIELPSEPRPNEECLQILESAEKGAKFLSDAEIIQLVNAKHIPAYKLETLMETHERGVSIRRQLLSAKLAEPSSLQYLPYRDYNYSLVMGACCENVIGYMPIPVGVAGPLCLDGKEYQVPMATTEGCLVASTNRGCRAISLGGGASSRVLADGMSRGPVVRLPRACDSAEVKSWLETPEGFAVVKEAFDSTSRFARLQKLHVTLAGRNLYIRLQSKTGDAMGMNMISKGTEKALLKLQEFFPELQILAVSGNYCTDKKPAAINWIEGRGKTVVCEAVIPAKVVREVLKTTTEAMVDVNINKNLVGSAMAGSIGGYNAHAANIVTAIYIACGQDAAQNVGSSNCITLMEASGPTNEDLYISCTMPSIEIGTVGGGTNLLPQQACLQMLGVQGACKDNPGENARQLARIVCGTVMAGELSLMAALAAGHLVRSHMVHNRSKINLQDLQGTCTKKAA
# [4] = system: HepG2; test: Ratio of inhibitory activity against HMG-CoA reductase of HepG2 cells vs hepatocytes; type: cell-based
# [5] = target: T3, 3-hydroxy-3-methylglutaryl-coenzyme A reductase; test: Compound was evaluated for inhibitory activity against HMG-CoA reductase in testes cell preparation; type: tissue-based, Testis
# [6] = target: T3, 3-hydroxy-3-methylglutaryl-coenzyme A reductase; test: Compound was evaluated for inhibitory activity against HMG-CoA reductase in spleen cell preparation; type: tissue-based
# [7] = target: T2, 3-hydroxy-3-methylglutaryl-coenzyme A reductase; test: Compound was evaluated for inhibitory activity against HMG-CoA reductase in adrenal cell preparation; type: cell-based
# [8] = system: Hepatocyte; test: Ratio of inhibitory activity of HepG2 to hepatocyte; type: cell-based
IC50 [1] [nM],IC50 [2] [nM],IC50 [3] [nM],IC50 [5] [nM],IC50 [6] [µM],IC50 [7] [nM],SMILES,Ratio [4],Ratio [8]
120,1720,20,,,,O=C(O)C[C@H](O)C[C@H](O)/C=C/C(=C(c1ccc(F)cc1)c1ccc(F)cc1)n1cnnn1,86,
> 100000,,,,,,O=C(O)C[C@H](O)C[C@H](O)/C=C/C(=C(c1ccc(F)cc1)c1ccc(F)cc1)n1nnnc1-c1ccccc1,,
630,1290,100,,,,Cc1nnnn1C(/C=C/[C@@H](O)C[C@@H](O)CC(=O)O)=C(c1ccc(F)cc1)c1ccc(F)cc1,,13

# Second part, the compound before the results:
SMILES,IC50 [1] [nM],IC50 [2] [nM],IC50 [3] [nM],IC50 [5] [nM],IC50 [6] [µM],IC50 [7] [nM],Ratio [4],Ratio [8]
CC[C@H](C)C(=O)O[C@H]1C[C@@H](C)C=C2C=C[C@H](C)[C@H](CC[C@@H]3C[C@@H](O)CC(=O)O3)[C@H]21 [LOVASTATIN],27,,,,,,,
Cn1nnnc1C(/C=C/[C@@H](O)C[C@@H](O)CC(=O)O)=C(c1ccc(F)cc1)c1ccc(F)cc1,43,1340,,1800,3.2,1600,62,

# Reference: ChEMBL document CHEMBL1151030, “Synthesis of tetrazol-1-yl analogs of HMG-COA reductase inhibitor BMS180431 (formerly BMY21950)” (Bioorg Med Chem Lett, 1992)
